# Data taken from US10053453B2, “Compounds and their use as BACE inhibitors” (AstraZeneca AB, priority 2014, dated 2018).
# What was measured:
# SH-SY5Y cells = experiment: sAPPβ release assay; settings: Homo sapiens, SH-SY5Y, read-out: IC50 Cell (sAPPβ release, nM), SH-SY5Y cells, compounds incubated 16-17 h
# Human BACE2 = molecular target: T1, Human BACE2 (Homo sapiens, UniProt Q9Y5Z0); experiment: TR-FRET assay; format: biochemical; settings: enzyme 2.7 μg/mL, substrate 100 nM, pH4.5
# T1 construct: the soluble part of the human β-Secretase2 (AA1-AA473) was cloned using BACE2(1-473)-(AVT)-Fc-pDEST12.2 mammalian expression vector; AVT linker (C); made in house
# T1 sequence (Q9Y5Z0 21-473): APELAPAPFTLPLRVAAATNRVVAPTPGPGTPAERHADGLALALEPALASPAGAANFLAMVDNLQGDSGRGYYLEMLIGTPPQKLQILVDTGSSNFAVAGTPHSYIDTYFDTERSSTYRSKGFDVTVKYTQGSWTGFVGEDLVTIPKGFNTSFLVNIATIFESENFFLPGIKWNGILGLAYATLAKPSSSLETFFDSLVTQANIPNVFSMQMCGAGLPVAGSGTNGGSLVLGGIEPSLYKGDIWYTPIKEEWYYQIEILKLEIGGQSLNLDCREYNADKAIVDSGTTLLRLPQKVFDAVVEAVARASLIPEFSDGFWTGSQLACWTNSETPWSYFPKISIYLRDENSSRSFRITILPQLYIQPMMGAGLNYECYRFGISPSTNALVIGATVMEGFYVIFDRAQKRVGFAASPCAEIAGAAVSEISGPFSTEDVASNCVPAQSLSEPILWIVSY
# Human BACE1 = molecular target: T2, Human BACE1 (Homo sapiens, UniProt P56817); experiment: Diluted TR-FRET assay; format: biochemical; settings: 50 times less enzyme, 6.5 h reaction time at r.t.; read-out: IC50 BACE1 (dil. TR-FRET)
# T2 construct: the soluble part of the human β-Secretase1 (AA1-AA460) was cloned using the BACE1(1-460)-(AVT)-Fc-pGEN-IRES-neo mammalian expression vector; AVT linker (C); made in house
# Procedure, shortened: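 Human BACE1 (residues 1-460) was fused to an IgG1 Fc affinity tag and stably expressed in HEK 293 cells. Using a Multidrop Combi, 7 μL enzyme was added to 0.8 μL compound in dimethylsulphoxide and incubated 10 minutes. Reactions were stopped with 5.5 μL NaOAC Stop solution (pH 9), and TR-FRET fluorescence was read on a Pherastar HTRF module.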
# T2 sequence (P56817 22-460): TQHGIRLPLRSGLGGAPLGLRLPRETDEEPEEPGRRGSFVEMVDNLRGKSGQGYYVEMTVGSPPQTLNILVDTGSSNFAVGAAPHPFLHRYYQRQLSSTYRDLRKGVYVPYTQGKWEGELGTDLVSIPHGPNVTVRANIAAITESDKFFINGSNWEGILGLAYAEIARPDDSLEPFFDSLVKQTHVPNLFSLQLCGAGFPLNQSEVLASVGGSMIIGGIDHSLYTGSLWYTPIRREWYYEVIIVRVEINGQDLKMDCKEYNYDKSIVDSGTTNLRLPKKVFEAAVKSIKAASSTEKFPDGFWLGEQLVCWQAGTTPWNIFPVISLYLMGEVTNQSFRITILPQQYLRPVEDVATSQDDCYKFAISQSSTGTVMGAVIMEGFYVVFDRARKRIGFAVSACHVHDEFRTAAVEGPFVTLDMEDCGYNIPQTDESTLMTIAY
Compound,IC50 (SH-SY5Y cells) [nM],IC50 (Human BACE2) [nM],IC50 (Human BACE1) [nM]
"[2H]C1([2H])OC(N)=NC12c1cc(/C=N/OCC)ccc1C[C@]21CC[C@@H](OC)CC1 (stereo partly drawn) [Compound 56, (E)-2″-amino-4-methoxy-3′H,5″H-dispiro[cyclohexane-1,2′-indene-1′,4″-oxazole]-5″,5″-d2-6′-carbaldehyde O-ethyl oxime]",57,3240,1630
"[2H]C1([2H])OC(N)=NC12c1cc(-c3cncnc3)ccc1C[C@]21CC[C@@H](O)[C@H](C)C1 (stereo partly drawn) [Compound 57, (1R,3R,4R)-2″-amino-3-methyl-6′-(pyrimidin-5-yl)-3′H,5″H-dispiro[cyclohexane-1,2′-indene-1′,4″-oxazol]-5″,5″-d2-4-ol]",94.8,> 5000,341
"[2H]C1([2H])OC(N)=NC12c1cc(-c3cc(C#N)cc(OC)c3)ccc1C[C@]21CC[C@@H](O)[C@H](C)C1 (stereo partly drawn) [Compound 58, 3-((1R,3R,4R)-2″-amino-4-hydroxy-3-methyl-3′H,5″H-dispiro[cyclohexane-1,2′-indene-1′,4″-oxazol]-6′-yl-5″,5″-d2)-5-methoxybenzonitrile]",102,139,301
"CO[C@H]1CC[C@]2(CC1)Cc1ccc(-c3cccnn3)cc1C21COC(N)=N1 (stereo partly drawn) [Compound 59, (1r,4r)-4-methoxy-6′-(pyridazin-3-yl)-3′H,5″H-dispiro[cyclohexane-1,2′-indene-1′,4″-oxazol]-2″-amine]",128,4990,2250
"[2H]C1([2H])OC(N)=NC12c1cc(/C(C)=N/OCCC(F)(F)F)ccc1C[C@]21CC[C@@H](OC)CC1 (stereo partly drawn) [Compound 60, (E)-1-((1r,4r)-2″-amino-4-methoxy-3′H,5″H-dispiro[cyclohexane-1,2′-indene-1′,4″-oxazol]-6′-yl-5″,5″-d2)ethan-1-one O-(3,3,3-trifluoropropyl)oxime]",206,> 5000,> 5000
"[2H]C1([2H])OC(N)=NC12c1cc(/C=N/OC3CCC3)ccc1C[C@]21CC[C@@H](OC)CC1 (stereo partly drawn) [Compound 61, (E)-2″-amino-4-methoxy-3′H,5″H-dispiro[cyclohexane-1,2′-indene-1′,4″-oxazole]-5″,5″-d2-6′-carbaldehyde O-cyclobutyl oxime]",207,3440,1960
"CO[C@H]1CC[C@]2(CC1)Cc1ccc(-c3ccnnc3)cc1C21COC(N)=N1 (stereo partly drawn) [Compound 62, (1r,4r)-4-methoxy-6′-(pyridazin-4-yl)-3′H,5″H-dispiro[cyclohexane-1,2′-indene-1′,4″-oxazol]-2″-amine]",250,> 5000,> 5000
"[2H]C1([2H])OC(N)=NC12c1cc(-c3cncnc3)ccc1C[C@@]21CC[C@H](O)[C@@H](C)C1 (stereo partly drawn) [Compound 63, (1S,3S,4S)-2″-amino-3-methyl-6′-(pyrimidin-5-yl)-3′H,5″H-dispiro[cyclohexane-1,2′-indene-1′,4″-oxazol]-5″,5″-d2-4-ol]",266,> 5000,1460
"CO[C@H]1CC[C@]2(CC1)Cc1ccccc1C21COC(N)=N1 (stereo partly drawn) [Compound 64, (1r,4r)-4-methoxy-3′H,5″H-dispiro[cyclohexane-1,2′-indene-1′,4″-oxazol]-2″-amine]",307,> 5000,> 5000
"[2H]C1([2H])OC(N)=NC12c1cc(/C(C)=N/OCC)ccc1C[C@]21CC[C@@H](OC)CC1 (stereo partly drawn) [Compound 65, (E)-1-((1r,4r)-2″-amino-4-methoxy-3′H,5″H-dispiro[cyclohexane-1,2′-indene-1′,4″-oxazol]-6′-yl-5″,5″-d2)ethan-1-one O-ethyl oxime]",> 5000,> 5000,> 5000
"[2H]C1([2H])OC(N)=N[C@]12c1cc(-c3cncnc3C)ccc1C[C@@]21CC[C@H](OC)[C@@H](C)C1 [Compound 70, (1S,1′R,3S,4S)-4-methoxy-3-methyl-6′-(4-methylpyrimidin-5-yl)-3′H,5″H-dispiro[cyclohexane-1,2′-indene-1′,4″-oxazol]-5″,5″-d2-2″-amine]",26.6,> 5000,1130
"COCCCC1(C)Cc2ccc(-c3cc(C#N)cc(OC)c3)cc2C12COC(N)=N2 (stereo not drawn) [Compound 88, 3-(2′-amino-2-(3-methoxypropyl)-2-methyl-2,3-dihydro-5′H-spiro[indene-1,4′-oxazol]-6-yl)-5-methoxybenzonitrile]",450,340,1950
"[2H]C1([2H])OC(N)=NC12c1cc(-c3cc(C#N)cc(OC)c3)ccc1CC2(C)C1CCOCC1 (stereo not drawn) [Compound 89, 3-(2′-amino-2-methyl-2-(tetrahydro-2H-pyran-4-yl)-2,3-dihydro-5′H-spiro[indene-1,4′-oxazol]-6-yl-5′,5′-d2)-5-methoxybenzonitrile]",889,> 5000,> 5000
"COCCCC1Cc2ccc(-c3cc(C#N)cc(OC)c3)cc2C12COC(N)=N2 (stereo not drawn) [Compound 90, 3-(2′-amino-2-(3-methoxypropyl)-2,3-dihydro-5′H-spiro[indene-1,4′-oxazol]-6-yl)-5-methoxybenzonitrile]",715,> 5000,> 5000
"COc1cc(C#N)cc(-c2ccc3c(c2)C2(COC(N)=N2)C(C2CCOCC2)C3)c1 (stereo not drawn) [Compound 91, 3-(2′-Amino-2-(tetrahydro-2H-pyran-4-yl)-2,3-dihydro-5′H-spiro[indene-1,4′-oxazol]-6-yl)-5-methoxybenzonitrile]",331,701,4660
"COCCC1Cc2ccc(-c3cc(C#N)cc(OC)c3)cc2C12COC(N)=N2 (stereo not drawn) [Compound 92, 3-(2′-amino-2-(2-methoxyethyl)-2,3-dihydro-5′H-spiro[indene-1,4′-oxazol]-6-yl)-5-methoxybenzonitrile]",223,437,4160

# These reach a lower IC50 (SH-SY5Y cells). Values come first.
IC50 (SH-SY5Y cells) [nM],IC50 (Human BACE2) [nM],IC50 (Human BACE1) [nM],Compound
17,> 5000,423,"[2H]C1([2H])OC(N)=N[C@]12c1cc(-c3cnccn3)ccc1C[C@]21CC[C@@H](OC)[C@H](C)C1 [Compound 69, (1R,1′R,3R,4R)-4-methoxy-3-methyl-6′-(pyrazin-2-yl)-3′H,5″H-dispiro[cyclohexane-1,2′-indene-1′,4″-oxazol]-5″,5″-d2-2″-amine]"
3.6,> 5000,203,"[2H]C([2H])([2H])O[C@H]1CC[C@@]2(Cc3ccc(-c4cnccn4)cc3[C@]23N=C(N)OC3([2H])[2H])C[C@@H]1C [Compound 72, (1S,1′R,3S,4S)-4-(methoxy-d3)-3-methyl-6′-(pyrazin-2-yl)-3′H,5″H-dispiro[cyclohexane-1,2′-indene-1′,4″-oxazol]-5″,5″-d2-2″-amine]"
< 0.16,600,45,"[2H]C([2H])([2H])O[C@@H]1CC[C@]2(Cc3ccc(-c4cccnc4)cc3[C@]23N=C(N)OC3([2H])[2H])C[C@H]1C [Compound 80, (1R,1′R,3R,4R)-4-(methoxy-d3)-3-methyl-6′-(pyridin-3-yl)-3′H,5″H-dispiro[cyclohexane-1,2′-indene-1′,4″-oxazol]-5″,5″-d2-2″-amine]"
17,> 5000,423,"[2H]C([2H])([2H])O[C@@H]1CC[C@]2(Cc3ccc(-c4cnccn4)cc3[C@]23N=C(N)OC3([2H])[2H])C[C@H]1C [Compound 81, (1R,1′R,3R,4R)-4-(methoxy-d3)-3-methyl-6′-(pyrazin-2-yl)-3′H,5″H-dispiro[cyclohexane-1,2′-indene-1′,4″-oxazol]-5″,5″-d2-2″-amine]"
23,1790,138,"[2H]C1([2H])CC2(N=C(N)O1)c1cc(-c3cncnc3)ccc1C[C@]21CC[C@@H](OC)CC1 (stereo partly drawn) [Compound 82, (1r,4r)-4-methoxy-6′-(pyrimidin-5-yl)-5″,6″-dihydro-3′H-dispiro[cyclohexane-1,2′-indene-1′,4″-[1,3]oxazin]-6″,6″-d2-2″-amine]"
4.8,103,88.7,"[2H]C1([2H])CC2(N=C(N)O1)c1cc(-c3cncc(C#N)c3)ccc1C[C@]21CC[C@@H](OC)CC1 (stereo partly drawn) [Compound 84, 5-((1r,4r)-2″-amino-4-methoxy-5″,6″-dihydro-3′H-dispiro[cyclohexane-1,2′-indene-1′,4″-[1,3]oxazin]-6′-yl-6″,6″-d2)nicotinonitrile]"
3.5,62.5,31.8,"[2H]C1([2H])CC2(N=C(N)O1)c1cc(-c3cc(C#N)cc(OC)c3)ccc1C[C@]21CC[C@@H](OC)CC1 (stereo partly drawn) [Compound 85, 3-((1r,4r)-2″-amino-4-methoxy-5″,6″-dihydro-3′H-dispiro[cyclohexane-1,2′-indene-1′,4″-[1,3]oxazin]-6′-yl-6″,6″-d2)-5-methoxybenzonitrile]"
